# Experimental data published in US20220363689A1, “INHIBITOR OF BTK AND MUTANTS THEREOF” (Newave Pharmaceutical Inc., priority 2019, published 2022).
# Legend:
# Type in all cases: biochemical
# WT BTK [1] = target: T1, WT BTK (Homo sapiens, UniProt Q06187); assay: In vitro dialysis assay (irreversibility assay), WT BTK; conditions: reversible or irreversible/covalent inhibition after 24 h dialysis
# Method: The compound-enzyme complex was dialyzed against the same buffer supplemented with 40 mM ATP for 24 hr. Cumulative dialysis factor>160,000×. After dialysis, the BTK activity was measured in the presence […] and 1 mM substrate peptide and compared to that in non-dialyzed samples. Assay buffer: 100 mM HEPES, pH7.5; […]; 5 mM MgCl2; 1 mM DTT. In this study, Ibrutiib (a FDA approved irreversible BTK inhibitor) was used as a positive control and Saurosporine (a reversible BTK inhibitor) was used as a negative control.
# WT BTK [2] = target: T1, WT BTK; assay: Caliper-based kinase assay, WT BTK; conditions: 0.5 nM enzyme, ATP 16 μM, room temperature 3 h; read-out: WT BTK IC50 (nM) (irreversible inhibition)
# Method: (§1) A Caliper-based kinase assay (Caliper Life Sciences, Hopkinton, Mass.) was used to measure inhibition of WT and […] Btk kinase activity of a compound of the present disclosure. […] The reaction was then terminated with EDTA, final concentration 20 mM and the phosphorylated reaction product was quantified on a Caliper Desktop Profiler (Caliper LabChip 3000).
# C481S Btk = C481S Btk (Homo sapiens, UniProt Q06187, C481S); assay: Caliper-based kinase assay, C481S BTK; conditions: 0.5 nM enzyme, ATP 16 μM, room temperature 3 h; read-out: C481S BTK IC50 (nM) (reversible inhibition)
# Method: as §1
# Chain of C481S Btk (Q06187 whole entry C481S): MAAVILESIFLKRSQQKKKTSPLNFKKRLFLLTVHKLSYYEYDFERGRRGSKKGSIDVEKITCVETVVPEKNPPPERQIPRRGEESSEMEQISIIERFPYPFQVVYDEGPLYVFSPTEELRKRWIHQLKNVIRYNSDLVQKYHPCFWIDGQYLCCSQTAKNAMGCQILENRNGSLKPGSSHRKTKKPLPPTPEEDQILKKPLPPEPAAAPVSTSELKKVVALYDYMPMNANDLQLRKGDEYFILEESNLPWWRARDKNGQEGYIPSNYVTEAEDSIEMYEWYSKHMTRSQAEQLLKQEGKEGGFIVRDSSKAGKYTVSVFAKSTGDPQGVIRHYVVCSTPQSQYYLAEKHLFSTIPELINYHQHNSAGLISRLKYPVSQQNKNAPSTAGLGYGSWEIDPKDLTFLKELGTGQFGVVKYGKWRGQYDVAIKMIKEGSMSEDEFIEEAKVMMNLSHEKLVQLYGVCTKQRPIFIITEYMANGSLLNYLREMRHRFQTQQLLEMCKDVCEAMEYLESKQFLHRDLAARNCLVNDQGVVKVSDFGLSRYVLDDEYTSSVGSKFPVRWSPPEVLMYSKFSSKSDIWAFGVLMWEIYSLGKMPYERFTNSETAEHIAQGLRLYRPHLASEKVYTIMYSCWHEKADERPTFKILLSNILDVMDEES
# T1 sequence (Q06187 whole entry): as the sequence (Q06187 whole entry C481S) above, with S481C counted along it
Conclusion (WT BTK) (WT BTK [1]),IC50 (WT BTK [2]),IC50 (C481S Btk),SMILES
Irreversible/covalent inhibition,0.14 nM,0.72 nM,"C=CC(=O)Nc1cc(Nc2nc(-c3ccnc(N4CCn5c(cc6c5CC(C)(C)C6)C4=O)c3CO)cn(C)c2=O)ccc1N1CCN(C2COC2)C[C@@H]1C [Example 3, (S)—N-(5-((6-(2-(7,7-dimethyl-1-oxo-1,3,4,6,7,8-hexahydro-2H-cyclopenta[4,5]pyrrolo[1,2-a]pyrazin-2-yl)-3-(hydroxymethyl)pyridin-4-yl)-4-methyl-3-oxo-3,4-dihydropyrazin-2-yl)amino)-2-(2-methyl-4-(oxetan-3-yl)piperazin-1-yl)phenyl)acrylamide]"
Irreversible/covalent inhibition,0.25 nM,15.9 nM,"C=CC(=O)Nc1cc(Nc2nc(-c3ccnc(N4CCn5c(cc6c5CC(C)(C)C6)C4=O)c3C)cn(C)c2=O)ccc1N1CCN(C2COC2)C[C@@H]1C [Example 11, (S)—N-(5-((6-(2-(7,7-dimethyl-1-oxo-1,3,4,6,7,8-hexahydro-2H-cyclopenta[4,5]pyrrolo[1,2-a]pyrazin-2-yl)-3-methylpyridin-4-yl)-4-methyl-3-oxo-3,4-dihydropyrazin-2-yl)amino)-2-(2-methyl-4-(oxetan-3-yl)piperazin-1-yl)phenyl)acrylamide]"
Irreversible/covalent inhibition,0.046 nM,0.25 nM,"C=CC(=O)Nc1cc(Nc2nc(-c3ccnc(N4CCn5c(cc6c5CC(C)(C)C6)C4=O)c3CO)cn(C)c2=O)ccc1N1CCC(N2CCOCC2)CC1C (centres unmarked) [Example 12, N-(5-((6-(2-(7,7-dimethyl-1-oxo-1,3,4,6,7,8-hexahydro-2H-cyclopenta[4,5]pyrrolo[1,2-a]pyrazin-2-yl)-3-(hydroxymethyl)pyridin-4-yl)-4-methyl-3-oxo-3,4-dihydropyrazin-2-yl)amino)-2-(2-methyl-4-morpholinopiperidin-1-yl)phenyl)acrylamide]"
Irreversible/covalent inhibition,0.1 nM,7.1 nM,"C=CC(=O)Nc1cc(Nc2nc(-c3ccnc(N4CCn5c(cc6c5CC(C)(C)C6)C4=O)c3C)cn(C)c2=O)ccc1N1CCC(N2CCOCC2)CC1C [Example 17, N-(5-[[6-(2-[4,4-dimethyl-9-oxo-1,10-diazatricyclo[6.4.0.0^[2,6]]dodeca-2(6),7-dien-10-yl]-3-methylpyridin-4-yl)-4-methyl-3-oxopyrazin-2-yl]amino]-2-[(2S)-2-methyl-4-(morpholin-4-yl)piperidin-1-yl]phenyl)prop-2-enamide]"
Irreversible/covalent inhibition,0.18 nM,11.4 nM,"C=CC(=O)Nc1cc(Nc2nc(-c3ccnc(N4CCn5c(cc6c5CC(C)(C)C6)C4=O)c3C)cn(C)c2=O)ccc1N1CCC(N2CCOCC2)CC1.Cl [Example 18, N-(5-[[6-(2-[4,4-dimethyl-9-oxo-1,10-diazatricyclo[6.4.0.0^[2,6]]dodeca-2(6),7-dien-10-yl]-3-methylpyridin-4-yl)-4-methyl-3-oxopyrazin-2-yl]amino]-2-[4-(morpholin-4-yl)piperidin-1-yl]phenyl)prop-2-enamide hydrochloride]"
Irreversible/covalent inhibition,0.053 nM,0.4 nM,"C=CC(=O)Nc1cc(Nc2nc(-c3ccnc(N4CCn5c(cc6c5CC(C)(C)C6)C4=O)c3CO)cn(C)c2=O)ccc1N1CCC(N2CCC(F)(F)CC2)CC1 [Example 20, N-(2-[4,4-difluoro-[1,4′-bipiperidin]-1′-yl]-5-[[6-(2-[4,4-dimethyl-9-oxo-1,10-diazatricyclo[6.4.0.0^[2,6]]dodeca-2(6),7-dien-10-yl]-3-(hydroxymethyl)pyridin-4-yl)-4-methyl-3-oxopyrazin-2-yl]amino]phenyl)prop-2-enamide]"
Irreversible/covalent inhibition,0.04 nM,0.4 nM,"C=CC(=O)Nc1cc(Nc2nc(-c3ccnc(N4CCn5c(cc6c5CC(C)(C)C6)C4=O)c3CO)cn(C)c2=O)ccc1N1CCC(N2CCN(C)CC2)CC1 [Example 21, N-(5-[[6-(2-[4,4-dimethyl-9-oxo-1,10-diazatricyclo[6.4.0.0^[2,6]]dodeca-2(6),7-dien-10-yl]-3-(hydroxymethyl)pyridin-4-yl)-4-methyl-3-oxopyrazin-2-yl]amino]-2-[4-(4-methylpiperazin-1-yl)piperidin-1-yl]phenyl)prop-2-enamide]"
Irreversible/covalent inhibition,0.046 nM,0.48 nM,"C=CC(=O)Nc1cc(Nc2nc(-c3ccnc(N4CCn5c(cc6c5CC(C)(C)C6)C4=O)c3CO)cn(C)c2=O)ccc1N1CCN(C2CCOCC2)C[C@@H]1C [Example 22, N-(5-[[6-(2-[4,4-dimethyl-9-oxo-1,10-diazatricyclo[6.4.0.0^[2,6]]dodeca-2(6),7-dien-10-yl]-3-(hydroxymethyl)pyridin-4-yl)-4-methyl-3-oxopyrazin-2-yl]amino]-2-[(2S)-2-methyl-4-(oxan-4-yl)piperazin-1-yl]phenyl)prop-2-enamide]"
Irreversible/covalent inhibition,0.048 nM,0.49 nM,"C=CC(=O)Nc1cc(Nc2nc(-c3ccnc(N4CCn5c(cc6c5CC(C)(C)C6)C4=O)c3CO)cn(C)c2=O)ccc1N1CCN(C2CCC(F)(F)CC2)C[C@@H]1C [Example 23, N-[2-[(2S)-4-(4,4-difluorocyclohexyl)-2-methylpiperazin-1-yl]-5-[[6-(2-[4,4-dimethyl-9-oxo-1,10-diazatricyclo[6.4.0.0^[2,6]]dodeca-2(6),7-dien-10-yl]-3-(hydroxymethyl)pyridin-4-yl)-4-methyl-3-oxopyrazin-2-yl]amino]phenyl]prop-2-enamide]"
Irreversible/covalent inhibition,0.076 nM,0.32 nM,"C=CC(=O)Nc1cc(Nc2nc(-c3ccnc(N4CCCn5c(cc6c5CC(C)(C)C6)C4=O)c3CO)cn(C)c2=O)ccc1N1CCN(C2COC2)C[C@@H]1C [Example 29, N-(5-[[6-(2-[4,4-dimethyl-9-oxo-1,10-diazatricyclo[6.5.0.0^[2,6]]trideca-2(6),7-dien-10-yl]-3-(hydroxymethyl)pyridin-4-yl)-4-methyl-3-oxopyrazin-2-yl]amino]-2-[(2S)-2-methyl-4-(oxetan-3-yl)piperazin-1-yl]phenyl)prop-2-enamide]"
–,1.58 nM,1.6 nM,"C=CC(=O)Nc1cc(Nc2nc(-c3ccnc(N4CCn5c(cc6c5CC(C)(C)C6)C4=O)c3CO)cn(C)c2=O)cc(F)c1N1CCN(C2COC2)C[C@@H]1C [Example 30, N-(5-[[6-(2-[4,4-dimethyl-9-oxo-1,10-diazatricyclo[6.4.0.0^[2,6]]dodeca-2(6),7-dien-10-yl]-3-(hydroxymethyl)pyridin-4-yl)-4-methyl-3-oxopyrazin-2-yl]amino]-3-fluoro-2-[(2S)-2-methyl-4-(oxetan-3-yl)piperazin-1-yl]phenyl)prop-2-enamide]"
Irreversible/covalent inhibition,0.13 nM,17.9 nM,"C=CC(=O)Nc1cc(Nc2nc(-c3ccnc(N4CCc5c(sc6c5CCC6(C)C)C4=O)c3CO)cn(C)c2=O)ccc1N1CCN(C2COC2)C[C@@H]1C [Example 35, N-(5-[[6-(2-[5,5-dimethyl-9-oxo-7-thia-10-azatricyclo[6.4.0.0^[2,6]]dodeca-1(8),2(6)-dien-10-yl]-3-(hydroxymethyl)pyridin-4-yl)-4-methyl-3-oxopyrazin-2-yl]amino]-2-[(2S)-2-methyl-4-(oxetan-3-yl)piperazin-1-yl]phenyl)prop-2-enamide]"
